Assay results taken from patent US20220249598A1, “COMPOSITIONS TARGETING SPERM CALCINEURIN” (Kent State University, priority 2019, published 2022).
“Also recorded” adds a separate entry of the source.

What was measured:
mouse caudal spermatozoa [1] = assay: in vitro fertilization (IVF) with inhibitor-treated spermatozoa, two-cell stage formation; assay type: cell-based
Procedure: Nanomolar doses of FK506 were used to treat spermatozoa and then use those cells were used for in vitro fertilization (IVF) assays. The treated spermatozoa were exposed to three different types oocyte conditions while performing IVF: a) regular IVF with intact oocyte-cumulus complex, b) cumulus-free intact oocyte and c) cumulus-free zona-free oocyte.
A) Spermatozoa were incubated under capacitating medium (viz. […] Additionally, oocytes were also incubated with same concentration of FK506, which it encounters during the IVF, the corresponding spermatozoa set was untreated. […] B) Dose response curve of FK506 at 0, 2.5, 5, 10, 20 & 50 nM concentration.

sperm calcineurin = sperm calcineurin (Mus musculus, UniProt P26883+P48455+Q63811); assay: calcineurin activity in sperm; assay type: biochemical
Procedure: The effect of calcineurin inhibitor on GSK3αβ phosphorylation was studied by Western blot procedure. Calcium dependence of calcineurin mediated GSK3α regulation was also checked. Both GSK3 activity and Calcineurin activity were measured in presence of FK506. […] A) Modulation of phospho-serine/tyrosine profile GSK3α by FK506 (20 nM) during capacitation; for capacitation spermatozoa were incubated with ‘capacitation medium’, HTF or TYH for ˜90 min. B) phosphor-serine GSK3α status was checked during capacitation with TYH medium having high fatty acid containing BSA. C) Possible involvement of AKT in mediation of calcineurin induced regulation of GSK3α. D) Validation of involvement of extracellular calcium in GSK3α regulation; no calcium salt was added in the ‘−Ca^2+’ set, 10 μM BAPTA-AM was used to chelate intra-sperm Ca^2+ ions; CatSper1 phosphorylation was compared between wild type and ppp3r2 knockout sperm extract E) GSK3 activity of sperm cells under capacitating condition was checked using p^32radioactive ATP for phosphorylation of substrate. F) Co-relation among intracellular free calcium levels of different maturational stages of sperm cells with calcineurin activity was measured; for negative control, 20 nM of FK506 was used.

[2] = 0.1% tacrolimus formulations; cited from earlier work
[3] = cited from earlier work
mouse sperm = assay: sperm motility / hyperactivation by computer assisted sperm analyzer (CASA); assay type: cell-based; conditions: FK506 treatment 120-180 min, capacitation; FIG. 2B
Procedure: Another set of treated sperm cell was analyzed for its motility parameters using computer assisted sperm analyzer (CASA). Average path velocity (VAP), curvilinear velocity (VCL) and amplitude of lateral head displacement (ALH) were measured to assess hyperactivation. FIG. 2 illustrates the detection of FK506 induced defect in sperm motility and oocyte penetration. A) FK506 (20 nM) treated spermatozoa were used for both cumulus free zona intact oocytes as well as zona-free oocytes. B) Effect of FK506 treatment for (120-180 min) on sperm hyperactivation controlling parameters; VAP: average path velocity, VCL: curvilinear velocity, ALH: lateral head amplitude.

sperm GSK3 = assay: GSK3 activity of sperm cells with p32 radioactive ATP; assay type: biochemical, mouse; conditions: capacitating condition
Procedure: (§1) The effect of calcineurin inhibitor on GSK3αβ phosphorylation was studied by Western blot procedure. Calcium dependence of calcineurin mediated GSK3α regulation was also checked. Both GSK3 activity and Calcineurin activity were measured in presence of FK506. FIG. 3 illustrates the regulation of GSK3α in mouse sperm by FK506. A) Modulation of phospho-serine/tyrosine profile GSK3α by FK506 (20 nM) during capacitation; for capacitation spermatozoa were incubated with ‘capacitation medium’, HTF or TYH for ˜90 min. B) phosphor-serine GSK3α status was checked during capacitation with TYH medium having high fatty acid containing BSA. C) Possible involvement of AKT in mediation of calcineurin induced regulation of GSK3α. D) Validation of involvement of extracellular calcium in GSK3α regulation; no calcium salt was added in the ‘−Ca^2+’ set, 10 μM BAPTA-AM was used to chelate intra-sperm Ca^2+ ions; […] phosphorylation was compared between wild type and ppp3r2 knockout sperm extract E) GSK3 activity of sperm cells under capacitating condition was checked using p^32radioactive ATP for phosphorylation of substrate. F) Co-relation among intracellular free calcium levels of different maturational stages of sperm cells with calcineurin activity was measured; for negative control, 20 nM of FK506 was used. All data represent mean±SEM of n=4 for all the values. *p≤0.05, **p≤0.01 versus control.

oocytes = assay: IVF with oocytes pre-incubated with inhibitor, spermatozoa untreated; assay type: cell-based, mouse; conditions: oocytes incubated with same concentration of FK506 (20 nM)
Procedure: FIG. 1 illustrates the effect of treatments of mouse caudal spermatozoa with calcineurin and GSK3 inhibitors on in vitro fertilization, indicated by two-cell stage formation. A) Spermatozoa were incubated under capacitating medium (viz. […] Additionally, oocytes were also incubated with same concentration of FK506, which it encounters during the IVF, the corresponding spermatozoa set was untreated. All data represent mean±SEM of n=3 for all the values. *p≤0.05 versus control. B) Dose response curve of FK506 at 0, 2.5, 5, 10, 20 & 50 nM concentration. C) Representative images showing effect of FK506 on IVF; black triangles directing the two-cell stage after fertilization of eggs.

mouse caudal spermatozoa [4] = assay: IVF of treated spermatozoa with cumulus-free zona-free oocytes; assay type: cell-based; conditions: FK506 20 nM, FIG. 2A
Procedure: Nanomolar doses of FK506 were used to treat spermatozoa and then use those cells were used for in vitro fertilization (IVF) assays. The treated spermatozoa were exposed to three different types oocyte conditions while performing IVF: a) regular IVF with intact oocyte-cumulus complex, b) cumulus-free intact oocyte and c) cumulus-free zona-free oocyte. FIG. 2 illustrates the detection of FK506 induced defect in sperm motility and oocyte penetration. A) FK506 (20 nM) treated spermatozoa were used for both cumulus free zona intact oocytes as well as zona-free oocytes. B) Effect of FK506 treatment for (120-180 min) on sperm hyperactivation controlling parameters; VAP: average path velocity, VCL: curvilinear velocity, ALH: lateral head amplitude.

GSK3α = assay: GSK3 phosphorylation in sperm by Western blot; assay type: cell-based, mouse; conditions: FK506 20 nM during capacitation
Procedure: as §1

## C=CC[C@@H]1/C=C(\C)C[C@H](C)C[C@H](OC)[C@H]2O[C@@](O)(C(=O)C(=O)N3CCCC[C@H]3C(=O)O[C@H](/C(C)=C/[C@@H]3CC[C@@H](O)[C@H](OC)C3)[C@H](C)[C@@H](O)CC1=O)[C@H](C)C[C@@H]2OC [FK506, tacrolimus]
Mouse caudal spermatozoa [1]; FK506 at 0, 2.5, 5, 10, 20 & 50 nM
  inhibition of sperm ability to fertilize eggs in vitro, dose response: good enough to inhibit
Mouse caudal spermatozoa [1]; sperm incubated 1 hr at 37° C. in capacitating medium, FK506 20 nM, cyclosporin A 10 μM, two-cell stage formation, FIG. 1A
  inhibition of fertilizing ability of sperm in vitro: significantly and independently inhibit; also recorded: inhibited fertilization
Sperm calcineurin
  inhibition of sperm calcineurin: inhibits sperm calcineurin at nanomolar level
[2]
  skin side effects: increased sensitivity of skin, burning, stinging or itching sensations
[3]; 0.1% tacrolimus formulations
  titer of the drug in blood: nanomolar titer
[3]; topical ointment
  bioavailability from an ointment formulation: ~0.5%
Mouse sperm
  hyperactivation of sperm (VAP, VCL, ALH): mostly unable to exhibit hyperactivity; also recorded: lack of attainment of hyperactivation
Sperm GSK3
  catalytic activity of sperm GSK3: decrease in catalytic activity
oocytes
  reduction in fertilization after pre-treatment of oocytes: did not result in any reduction in fertilization
Mouse caudal spermatozoa [4]
  fertilization of zona-free eggs by treated sperm: not affecting sperm cells to fertilize zona-free eggs
GSK3α
  net phosphorylation of sperm GSK3: increase in the net phosphorylation
